Assay results: patent publication US4791116A, “N,N-diethyl-N'-[(8α)-1-ethyl-6-methyl-ergolin-8-yl]-sulfamide useful as prolactin secretion inhibitor, anti-parkinson agents and anti-depressant agents” (priority 1983, dated 1988)
Like-named read-outs stand apart in the source and are kept apart here.

Experiments:
[1] = test system: central dopamine receptor; test: Ungerstedt test: turning in rats lesioned unilaterally with 6-hydroxy-dopamine (anti-parkinson); assay type: in vivo, rat
Experimental: In particular the compounds are useful as central dopamine receptor agents for the treatment of e.g. Morbus Parkinson as indicated in standard tests. For example in rates lesioned unilaterally in the nigro-neostratal dopamine pathway by the effect of a 6-hydroxy-dopamine injection in the substantia nigra the compounds at doses of between about 3 and about 30 mg/kg p.o., according to the method of U.Ungerstedt Acta.physiol.scand.Suppl.387, 69-93 (1971) and substantially the same as that described by J. M. Vigouret et al., Pharmacology 16 (Suppl.1) 156-193 (1978), induce turning in the direction of the non-denerved side over a long period of time, e.g. several hours.

implantation = test: inhibition of implantation in female rats; assay type: in vivo; conditions: Rattus norvegicus, sc, read-out: ED50 Implantation
Description: The effects are for an unexpectedly long period e.g. several hours.

[2] = tolerability in the beagle dog; assay type: in vivo; conditions: p.o.

| Structure (SMILES) | Ungerstedt test, No of rotations ([1]; at 0.1 mg/kg s.c.) | ED50 (implantation) [mg/kg] | Ungerstedt test, No of rotations ([1]; 3 mg/kg p.o., over 7 hours) | anti-parkinson activity relative to prolactin secretion activity ([1]; comparison with prolactin secretion tests) | emetic effects [2] | ED50 (implantation; female rats, s.c.) [mg/kg] |
| --- | --- | --- | --- | --- | --- | --- |
| CC(C)C[C@H]1C(=O)N2CCC[C@H]2[C@]2(O)O[C@](NC(=O)[C@@H]3C=C4c5cccc6[nH]c(Br)c(c56)C[C@H]4N(C)C3)(C(C)C)C(=O)N12 [Bromocriptine, reference compound] | 80 | 0.75 |  |  |  |  |
| CCN(CC)S(=O)(=O)N[C@H]1C[C@@H]2c3cccc4c3c(cn4CC)C[C@H]2N(C)C1 [Example 1, N,N-Diethyl-N'-[(8α)-1-ethyl-6-methyl-ergolin-8-yl]-sulfamide] |  |  | 774 | particularly patent anti-parkinson activity relative to prolactin secretion activity | few emetic effects | 0.23 |
| CCN(CC)S(=O)(=O)N[C@H]1C[C@@H]2c3cccc4c3c(cn4C(C)C)C[C@H]2N(C)C1 [Example 2, N,N-Diethyl-N'-[(8α)-1-isopropyl-6-methylergolin-8-yl]sulfamide] |  |  | 1608 |  |  | 0.08 |
